Reference: patent publication US20210236487A1, “Methods and Compositions for Treatment of Cancer with PARP Inhibitors” (Rush University Medical Center, priority 2018, published 2021)
“And” between values parts separate entries of the source, which are not always exact repeats. Equal entries are not always repeated. “Also recorded” adds a separate entry of the source.

Key:
[1] = Response to folic acid supplementation in patients on olaparib; type: in vivo, human; details: for Response to folic acid supplementation: on olaparib
Description: (§1) A formal assessment of folic acid level along with a chart review of olaparib treated ovarian cancer patients was conducted to determine the frequency of severe folic acid deficiency in this population and the impact of replacement therapy on outcome. This was an IRB-approved study performed at Rush University Medical Center from Dec. 1, 2016 to Apr. 3, 2017. Data collection was conducted in accordance with good clinical practice guidelines and the provisions of declaration of Helsinki. Data collected included cancer history, date of initiation of olaparib, duration of olaparib use, CBC data, peripheral smear/RBC morphology data, Vitamin B12, folic acid levels, iron studies with ferritin, reticulocyte count, LDH levels, haptoglobin levels, TSH levels, any treatment administered for hematological toxicities including nutritional supplementation or blood product transfusion, dose reductions or cessation of olaparib use and indication for such intervention were collected for all patients.

ovarian cancer = assay: Treatment outcome on olaparib (case series); type: in vivo, human
Description: as §1

[2] = Hematologic toxicity (Hgb, MCV, other abnormalities, transfusion, dose reduction) in olaparib-treated patients (chart review / case series); type: in vivo, human; details: for Transfusion requirement: secondary to anemia noted after administration of Olaparib; for Transfusion required: secondary to anemia noted while patient receiving olaparib
Description: as §1

[3] = system: gBRCA-mutated advanced ovarian cancer; details: Phase II trials, cited from earlier work
[4] = cited from earlier work
[5] = Serum folic acid level in olaparib-treated cancer patients (chart review / case series); type: in vivo, human; details: for Folic Acid Level: on olaparib, reference range 7.0-31.4 ng/mL
Description: as §1

[6] = Hellman, 1964; cited from earlier work
[7] = Table 3a, patient/age c1 A/62, c2 B/78, c3 C/63, c4 D/57
[8] = Table 3b, patient/age c1 E, c2 F, c3 G, c4 H
[9] = Table 1, patient/age c1 A/61, c2 B/78, c3 C/63, c4 D/57
[10] = Table 2a, patient/age c1 A/61, c2 B/78, c3 C/63, c4 D/57
[11] = Table 2b, patient/age c1 E, c2 F, c3 G, c4 H

Nc1nc2ncc(CNc3ccc(C(=O)N[C@@H](CCC(=O)O)C(=O)O)cc3)nc2c(=O)[nH]1 [folic acid]
anemia and macrocytosis after folic acid supplementation ([1]; Patient A on olaparib, oral folic acid 1 mg daily): improved
Hgb after folic acid supplementation ([1]; Patient B, two weeks after starting folic acid 1 mg daily, no longer required blood transfusions): markedly improved
folic acid level after supplementation ([1]; Patient C on olaparib, two weeks of folic acid 1 mg daily, minimally increased from prior value): 2.9 ng/mL
folic acid level after supplementation ([1]; Patient C, folic acid supplementation increased to 2 mg TID): normalized
Hgb stabilized after supplementation ([1]; Patient C, folic acid supplementation increased to 2 mg TID, olaparib briefly held): around 9 g/dL
folic acid level after supplementation ([1]; Patient D on olaparib, folic acid 1 mg daily): subsequent improvement
Response to folic acid supplementation ([1]; Table 1, patient/age c1 A/61, c2 B/78, c3 C/63, c4 D/57, improvement of folic acid level to within the reference range (≥7.0 ng/mL)): Yes
Response to folic acid supplementation ([1]; Table 2a, patient/age c1 A/61, c2 B/78, c3 C/63, c4 D/57, improvement of folic acid level to within the reference range (≥7.0 ng/mL)): Yes and No
Response to folic acid supplementation ([1]; Table 2b, patient/age c1 E, c2 F, c3 G, c4 H, improvement of folic acid level to within the reference range (≥7.0 ng/mL)): Yes
Response to folic acid supplementation ([1]; Table 3a, patient/age c1 A/62, c2 B/78, c3 C/63, c4 D/57, improvement of folic acid level to within reference range): Yes
Response to folic acid supplementation ([1]; Table 3b, patient/age c2, improvement of folic acid level to within reference range): Yes
correction of olaparib-induced folic acid deficiency ([1]; folic acid supplementation at variable doses): can correct

O=C(c1cc(Cc2n[nH]c(=O)c3ccccc23)ccc1F)N1CCN(C(=O)C2CC2)CC1 [olaparib, 4-[(3-[(4-cyclopropylcarbonyl)piperazin-4-yl]carbonyl)-4-fluorophenyl]methyl(2H)-phthalazin-1-one]
Treatment outcome: discontinued because of (ovarian cancer; [7]): progression; also recorded: refractory anemia; also recorded: diarrhea
Treatment outcome: treatment stopped after (ovarian cancer; Table 3b, patient E/73): after 20 days
Treatment outcome: discontinued because of / status (ovarian cancer; [8]): months; ongoing; also recorded: progression
patients who developed transfusion-dependent anemia ([2]; 4 cases, in the course of treatment with olaparib): Three of the four
hgb (severe anemia) ([2]; Case report, Patient A, after 5 weeks of olaparib therapy, requiring blood transfusion): 6.6 g/dL
MCV (macrocytic anemia) ([2]; Case report, Patient A, at the time of Hematology evaluation): 110.7 fL
Hgb (macrocytic anemia) ([2]; Case report, Patient A, at the time of Hematology evaluation, olaparib reduced to 100 mg BID): 9.0 g/dL
Hgb (acute decrease) ([2]; Patient B, five weeks after starting olaparib, from 8 g/dL, requiring blood transfusion): 6.8 g/dL
Hgb (further decrease) ([2]; Patient C on olaparib, two weeks after start of folic acid 1 mg daily, requiring blood transfusion): 6.3 g/dL
Hgb (drop in baseline) ([2]; Patient C, approximately 4 weeks after starting olaparib, from 14 g/dL): 10 g/dL
Hgb (mild anemia) ([2]; Patient D, while on olaparib for 6 months): 9 to 10 g/dL
Dose Reduction or Delay of Olaparib/Cause ([2]; Table 1, patient/age c1 A/61, c2 B/78, c3 C/63, c4 D/57, cause of dose change): anemia
Dose Reduction or Delay of Olaparib/Cause ([2]; Table 1, patient/age c1 A/61, c2 B/78, c3 C/63, c4 D/57, dose reduced or delayed): Yes/ and No
Other Hematologic Abnormalities ([2]; Table 1, patient/age c1 A/61, c2 B/78, c3 C/63, c4 D/57, noted at time of initial Hematology assessment): Leukopenia and None and Thrombo-
Hgb Nadir ([2]; Table 1, patient/age c1 A/61, c2 B/78, c3 C/63, c4 D/57, on olaparib, reference range 12.0-16.0 g/dL): 6.6 g⁻¹ dL⁻¹ and 6.3 g⁻¹ dL⁻¹ and 8.8 g⁻¹ dL⁻¹
MCV Nadir ([2]; Table 1, patient/age c1 A/61, c2 B/78, c3 C/63, c4 D/57, on olaparib, reference range 82.0-103.0 fL): 110.7 fL and 102.0 fL and 91.6* fL and 98.1 fL
Transfusion requirement [2, 9]: Yes and No
Dose Reduction or Delay of Olaparib/Cause [2, 10]: Yes, anemia and Yes, and No and anemia
Other Hematologic Abnormalities ([2]; Table 2a, patient/age c1 A/61, c2 B/78, c3 C/63, c4 D/57, noted at time of initial Hematology assessment): Leukopenia; and None and Thrombo-
Hgb Nadir ([2]; Table 2a, patient/age c1 A/61, c2 B/78, c3 C/63, c4 D/57, on olaparib, reference range 12.0-16.0 g/dL): 6.6 g⁻¹ dL⁻¹ and 6.3 g⁻¹ dL⁻¹ and 8.8 g⁻¹ dL⁻¹
MCV Nadir ([2]; Table 2a, patient/age c1 A/61, c2 B/78, c3 C/63, c4 D/57, on olaparib, reference range 82.0-103.0 fL): 110.7 fL and 102.0 fL and 91.6* fL and 98.1 fL
Transfusion requirement [2, 10]: Yes and No
Dose Reduction or Delay of Olaparib/Cause [2, 11]: No and Yes, neutropenia, and Yes, folic acid and anemia, fatigue, and dyspnea
Other Hematologic Abnormalities ([2]; Table 2b, patient/age c1 E, c2 F, c3 G, c4 H, noted at time of initial Hematology assessment): Leukopenia;; also recorded: Leukopenia; also recorded: Thrombocytopenia
MCV Nadir ([2]; Table 2b, patient/age c1 E, c2 F, c3 G, c4 H, on olaparib, reference range 82.0-103.0 fL): 112.0 fL and 115.8 fL and 93.2 fL and 98.9 fL
Transfusion requirement [2, 11]: No and Yes
Dose Reduction or Delay of Olaparib/Cause [2, 7]: Yes/anemia and No
Hgb Nadir ([2]; Table 3a, patient/age c1 A/62, c2 B/78, c3 C/63, c4 D/57, lowest value documented while receiving olaparib, reference range 12.0 to 16.0 g/dL): 6.6 g⁻¹ dL⁻¹ and 6.3 g⁻¹ dL⁻¹ and 8.8 g⁻¹ dL⁻¹
Other Hematologic Abnormalities ([2]; Table 3a, patient/age c1 A/62, c2 B/78, c3 C/63, c4 D/57, noted at time of initial hematologic assessment): Thrombo- and Leukopenia; and None
Transfusion required [2, 7]: Yes and No
MCV Nadir ([2]; Table 3a, patient/age c1 A/62, c2 B/78, c3 C/63, c4 D/57, while receiving olaparib, reference range 82.0 to 103.0 fL): 110.7 fL and 102.0 fL and 91.6 fL and 98.1 fL
Hgb Nadir ([2]; Table 3b, patient/age c1 E, c2 F (200 mg once per day), c3 G, c4 H (metastatic breast cancer), lowest value while receiving olaparib, reference range 12.0 to 16.0 g/dL): 10.8 g⁻¹ dL⁻¹ and 8.1 g⁻¹ dL⁻¹ and 12.2 g⁻¹ dL⁻¹ and 10.4 g⁻¹ dL⁻¹
Dose Reduction or Delay of Olaparib/Cause ([2]; Table 3b, patient/age c1 E, c2 F (reduced dose 200 mg once per day from the onset), c3 G/52, c4 H/35): No and No^k and Yes/rash
Other Hematologic Abnormalities ([2]; Table 3b, patient/age c1 E, c2 F, c3 G, c4 H, noted at time of initial hematologic assessment): Leukopenia; and None and Thrombo-
Transfusion required [2, 8]: No
MCV Nadir ([2]; Table 3b, patient/age c1 E, c2 F, c3 G, c4 H, while receiving olaparib, reference range 82.0 to 103.0 fL): 105.6 fL and 103.1 fL and 93.5 fL and 85.8 fL
progression-free survival ([3]; advanced ovarian cancer): significantly prolonged
overall response rate (ORR) ([3]; gBRCA-mutated advanced ovarian cancer, three or more previous lines of chemotherapy): 34%
myelodysplastic syndrome/Acute Myeloid Leukemia, olaparib-treated patients ([4]; Olaparib PI): 2%
adverse reactions leading to discontinuation of olaparib, patients ([4]; clinical trials (Olaparib PI)): 9%
adverse reactions leading to dose interruptions, patients ([4]; clinical trials (Olaparib PI)): 26%
adverse reactions leading to dose reductions, patients ([4]; clinical trials (Olaparib PI)): 15%
folic acid level (severe folic acid deficiency) in three additional patients ([5]; 3 other women, after taking olaparib for at least four weeks): < 1.6 ng/mL
folate level ([5]; Case report, Patient A on olaparib, Normal: 7-31.4 ng/mL): < 1.6 ng/mL
folic acid level (severe folic acid deficiency) ([5]; Patient B on olaparib): < 1.6 ng/mL
folic acid level (severe folic acid deficiency) ([5]; Patient C, approximately 4 weeks after starting olaparib): < 1.6 ng/mL
folic acid level (severely low) ([5]; Patient D on olaparib): 1.6 ng/mL
Folic Acid Level [5, 9]: <1.6 ng/mL and 1.6 ng/mL
Folic Acid Level [5, 10]: <1.6 ng/mL and 1.6 ng/mL
Folic Acid Level [5, 11]: 4.9 ng/mL and 5.2 ng/mL and 3.7 ng/mL and 6.2 ng/mL
folate level after initiation of olaparib ([5]; available laboratory data of the case series): drops precipitously within weeks

CN(Cc1cnc2nc(N)nc(N)c2n1)c1ccc(C(=O)N[C@@H](CCC(=O)O)C(=O)O)cc1 [Methotrexate]
serum folate level [6]: variably decreased
